The values that follow come from patent US12502379B2, “Ponesimod for avoiding worsening of fatigue-related symptoms in multiple sclerosis patients” (Vanda Pharmaceuticals Inc., priority 2019, dated 2025).

Data set [1] is described as follows: ALT increase relative to ULN. Type of data set: in vivo, human. The note with it: ponesimod 20 mg arm, teriflunomide 14 mg arm.
The test system of data set [2] is adult subjects with relapsing MS. As to the kind of experiment: Time to first 24-week confirmed disability accumulation (CDA) on EDSS. Type of data set: in vivo, human. As for the experimental part:
Secondary efficacy variables and testing strategy: Four secondary efficacy endpoints were analyzed as per the statistical testing strategy outlined in FIG. 1. • Change from baseline to Week 108 in fatigue-related symptoms as measured by the symptoms domain of the FSIQ-RMS patient-reported outcome [Fatigue] • Cumulative number of combined unique active lesions from baseline to Week 108 on brain MRI [CUALs] • Time to first 12-week confirmed disability accumulation (CDA) from baseline to EOS on Expanded Disability Status Scale (EDSS) [12-week CDA] • Time to first 24-week CDA from baseline to EOS on EDSS [24-week CDA]
A 24-week CDA is an increase of at least 1.5 in EDSS for subjects with a baseline EDSS score of 0.0 or an increase of at least 1.0 in EDSS for subjects with a baseline EDSS score of 1.0 to 5.0, or an increase of at least 0.5 in EDSS for subjects with a baseline EDSS score ≥5.5 which is to be confirmed after 24 weeks.
Baseline EDSS is defined as the last EDSS score recorded prior to randomization. The initial EDSS increase, meeting the above criteria, is defined as the onset of disability accumulation.
All EDSS measurements (with or without relapse, at a scheduled or unscheduled visit) were used to determine the onset of disability accumulation. […]

Turning to `CCC/N=C1\S/C(=C\c2ccc(OC[C@H](O)CO)c(Cl)c2)C(=O)N1c1ccccc1C` [Ponesimod, (R)-5-[3-chloro-4-(2,3-dihydroxy-propoxy)-benz[Z]ylidene]-2-([Z]-propylimino)-3-o-tolyl-thiazolidin-4-one], in data set [1], the “Proportion of subjects who experienced ALT increase >3×ULN” value is given as 17.3% and the “Proportion of subjects who experienced ALT increase >8×ULN” value was 0.7%. The “Time to first 24-week CDA, hazard ratio” value in data set [2] (ponesimod 20 mg vs teriflunomide 14 mg, stratified Cox regression) was determined as 0.84. For the same compound, the “Reduction of the risk of 24-week CDA compared to teriflunomide 14 mg” value in data set [2] (ponesimod 20 mg, not statistically significant) is recorded as 16%.
